Key:
MIA PaCa-2 [1] = assay: Antiproliferative activity against human MIA PaCa-2 cells assessed as cell growth inhibition incubated for 72 hrs by MTT assay; assay type: functional
[2] = Cytotoxicity against human MCF-10A cells assessed as cell growth inhibition at 25 uM incubated for 72 hrs by MTT assay relative to control; assay type: toxicity, cell-based
DU-145 [3] = assay: Antiproliferative activity against human DU-145 cells assessed as cell growth inhibition incubated for 72 hrs by MTT assay; assay type: functional
NCI-H460 [4] = assay: Antiproliferative activity against human NCI-H460 cells assessed as cell growth inhibition incubated for 72 hrs by MTT assay; assay type: functional
A2780 [5] = assay: Antiproliferative activity against human A2780 cells assessed as cell growth inhibition at 25 uM incubated for 72 hrs by MTT assay relative to control; assay type: functional
MCF7 [6] = assay: Antiproliferative activity against human MCF7 cells assessed as cell growth inhibition incubated for 72 hrs by MTT assay; assay type: functional
A-431 [7] = assay: Antiproliferative activity against human A-431 cells assessed as cell growth inhibition incubated for 72 hrs by MTT assay; assay type: functional
MIA PaCa-2 [8] = assay: Antiproliferative activity against human MIA PaCa-2 cells assessed as cell growth inhibition at 25 uM incubated for 72 hrs by MTT assay relative to control; assay type: functional
BE(2)-C [9] = assay: Antiproliferative activity against human BE2C cells assessed as cell growth inhibition incubated for 72 hrs by MTT assay; assay type: functional
NCI-H460 [10] = assay: Antiproliferative activity against human NCI-H460 cells assessed as cell growth inhibition at 25 uM incubated for 72 hrs by MTT assay relative to control; assay type: functional
[11] = Antiproliferative activity against human SJG2 cells assessed as cell growth inhibition incubated for 72 hrs by MTT assay; assay type: functional; details: SJ-G2
U-87 MG [12] = assay: Antiproliferative activity against human U87 cells assessed as cell growth inhibition at 25 uM incubated for 72 hrs by MTT assay relative to control; assay type: functional, U-87MG ATCC
MCF7 [13] = assay: Antiproliferative activity against human MCF7 cells assessed as cell growth inhibition at 25 uM incubated for 72 hrs by MTT assay relative to control; assay type: functional
A-431 [14] = assay: Antiproliferative activity against human A-431 cells assessed as cell growth inhibition at 25 uM incubated for 72 hrs by MTT assay relative to control; assay type: functional
BE(2)-C [15] = assay: Antiproliferative activity against human BE2C cells assessed as cell growth inhibition at 25 uM incubated for 72 hrs by MTT assay relative to control; assay type: functional
[16] = Cytotoxicity against human MCF-10A cells assessed as cell growth inhibition incubated for 72 hrs by MTT assay; assay type: toxicity, cell-based
U-87 MG [17] = assay: Antiproliferative activity against human U87 cells assessed as cell growth inhibition incubated for 72 hrs by MTT assay; assay type: functional, U-87MG ATCC
A2780 [18] = assay: Antiproliferative activity against human A2780 cells assessed as cell growth inhibition incubated for 72 hrs by MTT assay; assay type: functional
HT-29 [19] = assay: Antiproliferative activity against human HT-29 cells assessed as cell growth inhibition incubated for 72 hrs by MTT assay; assay type: functional
HT-29 [20] = assay: Antiproliferative activity against human HT-29 cells assessed as cell growth inhibition at 25 uM incubated for 72 hrs by MTT assay relative to control; assay type: functional
DU-145 [21] = assay: Antiproliferative activity against human DU-145 cells assessed as cell growth inhibition at 25 uM incubated for 72 hrs by MTT assay relative to control; assay type: functional
[22] = Antiproliferative activity against human SJG2 cells assessed as cell growth inhibition at 25 uM incubated for 72 hrs by MTT assay relative to control; assay type: functional; details: SJ-G2

## CC(C)(C)c1ccc(C2NC(=O)c3ccccc3N2)cc1 (stereo unspecified)
MIA PaCa-2 [1]
  GI50: 14 µM
[2]
  inhibition at 72 h, 25 µM: 53%
DU-145 [3]
  GI50: 35 µM
NCI-H460 [4]
  GI50: > 50 µM
A2780 [5]
  inhibition at 25 µM: 63%
MCF7 [6]
  GI50: 8.4 µM
A-431 [7]
  GI50: > 50 µM
MIA PaCa-2 [8]
  inhibition at 25 µM: 60%
BE(2)-C [9]
  GI50: 20 µM
NCI-H460 [10]
  inhibition at 25 µM: 44%
[11]
  GI50: > 50 µM
U-87 MG [12]
  inhibition at 25 µM: 40%
MCF7 [13]
  inhibition at 25 µM: > 100%
A-431 [14]
  inhibition at 25 µM: 32%
BE(2)-C [15]
  inhibition at 25 µM: 47%
[16]
  GI50 at 72 h: 19 µM
U-87 MG [17]
  GI50: > 50 µM
A2780 [18]
  GI50: 15 µM
HT-29 [19]
  GI50: 9.7 µM
HT-29 [20]
  inhibition at 25 µM: 79%
DU-145 [21]
  inhibition at 25 µM: 47%
[22]
  inhibition at 25 µM: 46%

## Cc1ccc(/C=C/c2nc(O)c3ccccc3n2)cc1
MIA PaCa-2 [1]
  GI50: 3.3 µM
[2]
  inhibition at 72 h, 25 µM: 86%
DU-145 [3]
  GI50: 7.7 µM
NCI-H460 [4]
  GI50: 9.4 µM
A2780 [5]
  inhibition at 25 µM: 97%
MCF7 [6]
  GI50: 1.2 µM
A-431 [7]
  GI50: 4 µM
MIA PaCa-2 [8]
  inhibition at 25 µM: 85%
BE(2)-C [9]
  GI50: 3.6 µM
NCI-H460 [10]
  inhibition at 25 µM: 69%
[11]
  GI50: 13 µM
U-87 MG [12]
  inhibition at 25 µM: 51%
MCF7 [13]
  inhibition at 25 µM: > 100%
A-431 [14]
  inhibition at 25 µM: 93%
BE(2)-C [15]
  inhibition at 25 µM: 82%
[16]
  GI50 at 72 h: 3.8 µM
U-87 MG [17]
  GI50: 19 µM
A2780 [18]
  GI50: 3.7 µM
HT-29 [19]
  GI50: 2.1 µM
HT-29 [20]
  inhibition at 25 µM: > 100%
DU-145 [21]
  inhibition at 25 µM: 61%
[22]
  inhibition at 25 µM: 57%

## O=C1NC(c2ccc(Br)cc2)Nc2ccccc21 (stereo unspecified)
MIA PaCa-2 [1]
  GI50: 3.2 µM
[2]
  inhibition at 72 h, 25 µM: 95%
DU-145 [3]
  GI50: 3.3 µM
NCI-H460 [4]
  GI50: 3.2 µM
A2780 [5]
  inhibition at 25 µM: 99%
MCF7 [6]
  GI50: 3.6 µM
A-431 [7]
  GI50: 3.1 µM
MIA PaCa-2 [8]
  inhibition at 25 µM: 90%
BE(2)-C [9]
  GI50: 2.6 µM
NCI-H460 [10]
  inhibition at 25 µM: 97%
[11]
  GI50: 2.5 µM
U-87 MG [12]
  inhibition at 25 µM: 88%
MCF7 [13]
  inhibition at 25 µM: 89%
A-431 [14]
  inhibition at 25 µM: > 100%
BE(2)-C [15]
  inhibition at 25 µM: > 100%
[16]
  GI50 at 72 h: 4 µM
U-87 MG [17]
  GI50: 4.7 µM
A2780 [18]
  GI50: 3.1 µM
HT-29 [19]
  GI50: 2.9 µM
HT-29 [20]
  inhibition at 25 µM: > 100%
DU-145 [21]
  inhibition at 25 µM: > 100%
[22]
  inhibition at 25 µM: > 100%

## COC(=O)c1cccc(/C=C/c2nc3ccccc3c(=O)[nH]2)c1
MIA PaCa-2 [1]
  GI50: 5.6 µM
[2]
  inhibition at 72 h, 25 µM: 48%
DU-145 [3]
  GI50: 16 µM
NCI-H460 [4]
  GI50: 7.2 µM
A2780 [5]
  inhibition at 25 µM: 16%
MCF7 [6]
  GI50: 2.2 µM
A-431 [7]
  GI50: 6.2 µM
MIA PaCa-2 [8]
  inhibition at 25 µM: 39%
BE(2)-C [9]
  GI50: 8.5 µM
NCI-H460 [10]
  inhibition at 25 µM: 34%
[11]
  GI50: 5.5 µM
U-87 MG [12]
  inhibition at 25 µM: 11%
MCF7 [13]
  inhibition at 25 µM: 77%
A-431 [14]
  inhibition at 25 µM: 8%
BE(2)-C [15]
  inhibition at 25 µM: 47%
[16]
  GI50 at 72 h: 8.5 µM
U-87 MG [17]
  GI50: 32 µM
A2780 [18]
  GI50: 4.8 µM
HT-29 [19]
  GI50: 3.8 µM
HT-29 [20]
  inhibition at 25 µM: 40%
DU-145 [21]
  inhibition at 25 µM: 32%
[22]
  inhibition at 25 µM: 43%

## O=C1NC(/C(Br)=C/c2ccccc2)Nc2ccccc21 (stereo unspecified)
MIA PaCa-2 [1]
  GI50: 12 µM
[2]
  inhibition at 72 h, 25 µM: 99%
DU-145 [3]
  GI50: 3.1 µM
NCI-H460 [4]
  GI50: 4.7 µM
A2780 [5]
  inhibition at 25 µM: 94%
MCF7 [6]
  GI50: 8.5 µM
A-431 [7]
  GI50: 8.2 µM
MIA PaCa-2 [8]
  inhibition at 25 µM: 81%
BE(2)-C [9]
  GI50: 10 µM
NCI-H460 [10]
  inhibition at 25 µM: 97%
[11]
  GI50: 12 µM
U-87 MG [12]
  inhibition at 25 µM: 95%
MCF7 [13]
  inhibition at 25 µM: > 100%
A-431 [14]
  inhibition at 25 µM: > 100%
BE(2)-C [15]
  inhibition at 25 µM: 87%
[16]
  GI50 at 72 h: 2.9 µM
U-87 MG [17]
  GI50: 5.7 µM
A2780 [18]
  GI50: 5 µM
HT-29 [19]
  GI50: 2.6 µM
HT-29 [20]
  inhibition at 25 µM: > 100%
DU-145 [21]
  inhibition at 25 µM: > 100%
[22]
  inhibition at 25 µM: > 100%

## O=C1NC(c2ccccc2Br)Nc2ccccc21 (stereo unspecified)
MIA PaCa-2 [1]
  GI50: 4.2 µM
[2]
  inhibition at 72 h, 25 µM: 94%
DU-145 [3]
  GI50: 4.3 µM
NCI-H460 [4]
  GI50: 3.6 µM
A2780 [5]
  inhibition at 25 µM: 96%
MCF7 [6]
  GI50: 3.7 µM
A-431 [7]
  GI50: 2.3 µM
MIA PaCa-2 [8]
  inhibition at 25 µM: 89%
BE(2)-C [9]
  GI50: 2.5 µM
NCI-H460 [10]
  inhibition at 25 µM: 95%
[11]
  GI50: 3 µM
U-87 MG [12]
  inhibition at 25 µM: 80%
MCF7 [13]
  inhibition at 25 µM: 82%
A-431 [14]
  inhibition at 25 µM: > 100%
BE(2)-C [15]
  inhibition at 25 µM: > 100%
[16]
  GI50 at 72 h: 4.3 µM
U-87 MG [17]
  GI50: 10 µM
A2780 [18]
  GI50: 2.5 µM
HT-29 [19]
  GI50: 2.4 µM
HT-29 [20]
  inhibition at 25 µM: > 100%
DU-145 [21]
  inhibition at 25 µM: 100%
[22]
  inhibition at 25 µM: > 100%

## O=c1[nH]c(/C=C/c2ccc(Br)cc2)nc2ccccc12
MIA PaCa-2 [1]
  GI50: 14 µM
[2]
  inhibition at 72 h, 25 µM: 86%
DU-145 [3]
  GI50: 8.9 µM
NCI-H460 [4]
  GI50: 11 µM
A2780 [5]
  inhibition at 25 µM: 93%
MCF7 [6]
  GI50: 3.1 µM
A-431 [7]
  GI50: 11 µM
MIA PaCa-2 [8]
  inhibition at 25 µM: 68%
BE(2)-C [9]
  GI50: 6.4 µM
NCI-H460 [10]
  inhibition at 25 µM: 70%
[11]
  GI50: 15 µM
U-87 MG [12]
  inhibition at 25 µM: 83%
MCF7 [13]
  inhibition at 25 µM: > 100%
A-431 [14]
  inhibition at 25 µM: 78%
BE(2)-C [15]
  inhibition at 25 µM: 78%
[16]
  GI50 at 72 h: 4.6 µM
U-87 MG [17]
  GI50: 13 µM
A2780 [18]
  GI50: 3.6 µM
HT-29 [19]
  GI50: 3.2 µM
HT-29 [20]
  inhibition at 25 µM: 94%
DU-145 [21]
  inhibition at 25 µM: 77%
[22]
  inhibition at 25 µM: 76%

## N#Cc1ccc2[nH]cc(-c3nc4ccccc4c(=O)[nH]3)c2c1
MIA PaCa-2 [1]
  GI50: 3.5 µM
DU-145 [3]
  GI50: 2.8 µM
NCI-H460 [4]
  GI50: 2.5 µM
MCF7 [6]
  GI50: 2.7 µM
A-431 [7]
  GI50: 4.9 µM
BE(2)-C [9]
  GI50: 3.4 µM
[11]
  GI50: 2.8 µM
[16]
  GI50 at 72 h: 3.5 µM
U-87 MG [17]
  GI50: 3.2 µM
A2780 [18]
  GI50: 2.7 µM
HT-29 [19]
  GI50: 3.9 µM

## O=C1NC(c2cc(O)c(O)c(O)c2)Nc2ccccc21 (stereo unspecified)
[2]
  inhibition at 72 h, 25 µM: 51%
A2780 [5]
  inhibition at 25 µM: 36%
MIA PaCa-2 [8]
  inhibition at 25 µM: 34%
NCI-H460 [10]
  inhibition at 25 µM: 19%
U-87 MG [12]
  inhibition at 25 µM: 29%
MCF7 [13]
  inhibition at 25 µM: 56%
A-431 [14]
  inhibition at 25 µM: 21%
BE(2)-C [15]
  inhibition at 25 µM: 27%
HT-29 [20]
  inhibition at 25 µM: 49%
DU-145 [21]
  inhibition at 25 µM: 40%
[22]
  inhibition at 25 µM: 10%
